From patent publication US8231721B2, “Antifungal liquid formulations” (LANXESS Deutschland GmbH, priority 2008, dated 2012) come the findings set out here.

This series in a line: Solubility of IPBC in Rhodiasolv DIB and PEG 300 (HPLC of supernatant). The format is physicochemical. The conditions noted are these: room temperature, after-stirred 12 h, supernatant by HPLC. As for the experimental part: Solubility of IPBC in Rhodiasolv DIB and PEG 300
The solvent was introduced as initial charge at room temperature, and IPBC was added until a sediment persisted. It was after-stirred for a further 12 h, the solid was centrifuged off and the remaining supernatant was analyzed by means of HPLC.

`CCCCNC(=O)OCC#CI` [IPBC, 3-iodopropargyl butylcarbamate]: the “solubility of IPBC in Rhodiasolv DIB” value was found to be 36.1 % by weight and the “solubility of IPBC in polyethylene glycol 300” value turned out to be 44.9 % by weight.
